The values below come from patent US10358663B2, “Method of production of 2,4-dihydroxybutyric acid” (ADISSEO FRANCE S.A.S., priority 2010, dated 2019).

Numbering of substitutions follows the chain as printed.

The target in assay [1] is E. coli aspartate kinase LysC variant E119G T344M, SEQ ID NO: 41 (Escherichia coli, UniProt P08660, E119G/T344M). Description: Lysine inhibition of malate kinase activity, LysC E119G T344M. It counts as biochemical. To be noted: elevated lysine concentrations. The protocol: (§1) The assay mixture contained 50 mM Hepes (pH 7.5), 50 mM KCl, 5 mM MgCl2, 0.24 mM NADH, 0.96 mM ATP, 0.96 mM PEP, 9 μg/mL of lactate dehydrogenase (Sigma, L2500), 12.4 μg/mL pyruvate kinase (Sigma, P1506), and appropriate amounts of purified aspartate (malate) kinase. Reactions were started by adding 50 mM (L)-aspartate or (L)-malate. Enzymatic assays were carried out at 30° C. in 96-well flat bottomed microtiter plates in a final volume of 250 μL. The reactions were followed by the characteristic absorption of NADH at 340 nm in a microplate reader (BioRad 680XR).
(§2) Expression and purification of enzymes: Protein expression for the His-tagged enzymes LysC E119G, LysC E119G E250K, LysC E119G T344M, LysC E119G S345L, LysC E119G T352I was carried out as described in Example 1.
(§3) Enzymatic assay: Malate kinase activities were assayed as described in Example 1. Lysine concentration in the reaction buffer was varied.

Assay [2] addresses E. coli aspartate kinase LysC variant E119G S345L, SEQ ID NO: 45 (Escherichia coli, UniProt P08660, E119G/S345L). Description: Lysine inhibition of malate kinase activity, LysC E119G S345L. It counts as biochemical. To be noted: elevated lysine concentrations. The protocol: as §1, §2, §3
Assay [3] addresses E. coli aspartate kinase LysC variant E119G E250K, SEQ ID NO: 39 (Escherichia coli, UniProt P08660, E119G/E250K). Description: Lysine inhibition of malate kinase activity, LysC E119G E250K. In kind it is biochemical. The note with it: elevated lysine concentrations. How it is done:
as §1, §2, §3

The target of assay [4] is T1, malic enzyme (Rattus norvegicus, UniProt P13697).
T1 sequence (P13697 1-572): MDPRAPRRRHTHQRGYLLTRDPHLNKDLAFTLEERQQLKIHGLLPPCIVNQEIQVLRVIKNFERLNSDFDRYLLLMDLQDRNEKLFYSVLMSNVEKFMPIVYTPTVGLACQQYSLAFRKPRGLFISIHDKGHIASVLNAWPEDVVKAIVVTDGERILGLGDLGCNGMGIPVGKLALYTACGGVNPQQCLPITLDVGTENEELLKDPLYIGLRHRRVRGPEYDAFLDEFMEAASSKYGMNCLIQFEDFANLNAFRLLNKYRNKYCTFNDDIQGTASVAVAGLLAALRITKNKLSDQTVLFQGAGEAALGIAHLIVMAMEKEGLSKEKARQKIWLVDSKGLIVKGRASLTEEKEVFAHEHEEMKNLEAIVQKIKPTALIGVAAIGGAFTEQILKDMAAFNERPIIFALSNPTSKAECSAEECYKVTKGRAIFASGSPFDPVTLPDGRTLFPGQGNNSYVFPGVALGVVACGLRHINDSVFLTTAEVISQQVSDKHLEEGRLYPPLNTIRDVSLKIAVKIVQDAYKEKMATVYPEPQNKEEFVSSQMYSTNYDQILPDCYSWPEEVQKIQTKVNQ
To be noted: cited from earlier work.

In assay [5] the target is T2, Metallosphaera sedula succinic semialdehyde reductase Ms-SSR variant N43H, SEQ ID NO: 227 (Metallosphaera sedula, UniProt A4YGN0, N43H).
T2 sequence (A4YGN0 1-360 N43H): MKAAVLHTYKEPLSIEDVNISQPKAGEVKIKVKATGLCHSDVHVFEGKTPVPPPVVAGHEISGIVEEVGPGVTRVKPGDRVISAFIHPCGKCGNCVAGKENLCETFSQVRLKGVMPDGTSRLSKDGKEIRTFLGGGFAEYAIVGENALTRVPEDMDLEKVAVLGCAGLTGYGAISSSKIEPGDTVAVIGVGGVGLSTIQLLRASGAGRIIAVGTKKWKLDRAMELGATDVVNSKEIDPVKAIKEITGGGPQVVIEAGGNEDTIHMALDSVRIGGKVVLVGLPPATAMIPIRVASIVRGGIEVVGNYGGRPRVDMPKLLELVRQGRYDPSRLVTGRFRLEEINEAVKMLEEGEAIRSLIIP
Description: Malate semialdehyde reductase assay, Ms-SSR N43H. It counts as biochemical. The note with it: pH 7.5, 30° C. The protocol:
(§4) Test for Malate Semialdehyde Reductase Activity: Reaction: (L)-Malate semialdehyde+NAD(P)H→(L)-2,4-dihydroxybutyric acid+NAD(P)
(§5) The assay mixture contained 200 mM Hepes (pH 7.5), 50 mM KCl, 5 mM MgCl2, 0.24 mM NADH or NADPH, and appropriate amounts of purified enzyme. Reactions were started by adding 10 mM (L)-malate semialdehyde (malate semialdehyde was prepared freshly for each test, see Example 4). Enzymatic assays were carried out at 30° C. in 96-well flat bottomed microtiter plates in a final volume of 250 μL. The reactions were followed by the characteristic absorption of NAD(P)H at 340 nm in a microplate reader (BioRad 680XR).
(§6) Site-directed mutagenesis was carried out using the oligonucleotide pairs listed in Table 8 and the pMs-SSR plasmid as the template. Point mutations to change the amino acid sequences were introduced by PCR (Phusion 1U, HF buffer 20% (v/v), dNTPs 2.5 mM, direct and reverse primers 1 μM each, template plasmid 200 ng, water). When possible, plasmids created by PCR contained new restriction sites (introduced using silent mutations) in addition to the functional mutation to facilitate identification of mutated clones. The PCR products were digested by DpnI at 37° C. for 1 h to remove template DNA, and transformed into NEB 5-alpha competent E. coli cells (NEB). […]

In assay [6] the target is T3, Metallosphaera sedula succinic semialdehyde reductase Ms-SSR, wild type, SEQ ID NO: 76 (Metallosphaera sedula, UniProt A4YGN0).
T3 sequence (A4YGN0 1-360): T2 sequence (A4YGN0 1-360 N43H) with H43N
Description: Malate semialdehyde reductase assay, Ms-SSR wild type. It counts as biochemical. The note with it: pH 7.5, 30° C. The protocol:
as §4, §5

Assay [7] addresses T4, Metallosphaera sedula succinic semialdehyde reductase Ms-SSR variant H39R N43H, SEQ ID NO: 81 (Metallosphaera sedula, UniProt A4YGN0, H39R/N43H).
T4 sequence (A4YGN0 1-360 H39R/N43H): T2 sequence (A4YGN0 1-360 N43H) with H39R
Description: Malate semialdehyde reductase assay, Ms-SSR H39R N43H. It counts as biochemical. The note with it: pH 7.5, 30° C. How it is done:
as §4, §5, §6

Assay [8] concerns the target T5, Metallosphaera sedula succinic semialdehyde reductase Ms-SSR variant H39R, SEQ ID NO: 225 (Metallosphaera sedula, UniProt A4YGN0, H39R).
T5 sequence (A4YGN0 1-360 H39R): T2 sequence (A4YGN0 1-360 N43H) with H39R, H43N
Description: Malate semialdehyde reductase assay, Ms-SSR H39R. The note with it: pH 7.5, 30° C. It counts as biochemical. The protocol: as §4, §5, §6

Chain of E. coli aspartate kinase LysC variant E119G S345L, SEQ ID NO: 45 (P08660 whole entry E119G/S345L): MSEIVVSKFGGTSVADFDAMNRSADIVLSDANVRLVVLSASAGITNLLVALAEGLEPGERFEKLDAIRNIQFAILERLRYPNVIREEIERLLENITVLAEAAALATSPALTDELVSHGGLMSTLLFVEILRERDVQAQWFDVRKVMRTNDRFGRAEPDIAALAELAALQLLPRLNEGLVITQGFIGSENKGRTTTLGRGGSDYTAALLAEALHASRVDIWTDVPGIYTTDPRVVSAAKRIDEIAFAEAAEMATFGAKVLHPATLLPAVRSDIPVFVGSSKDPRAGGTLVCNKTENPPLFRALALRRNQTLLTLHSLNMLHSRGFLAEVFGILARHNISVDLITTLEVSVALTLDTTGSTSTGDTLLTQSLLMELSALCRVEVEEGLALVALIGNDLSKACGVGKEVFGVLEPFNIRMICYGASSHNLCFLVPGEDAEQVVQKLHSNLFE
Chain of E. coli aspartate kinase LysC variant E119G E250K, SEQ ID NO: 39 (P08660 whole entry E119G/E250K): as the sequence (P08660 whole entry E119G/S345L) above, with E250K, L345S counted along it
Chain of E. coli aspartate kinase LysC variant E119G T344M, SEQ ID NO: 41 (P08660 whole entry E119G/T344M): as the sequence (P08660 whole entry E119G/S345L) above, with T344M, L345S counted along it

Consider `NCCCC[C@H](N)C(=O)O` [lysine], for which the “sensitivity of malate kinase activity to lysine” value in assay [1], in assay [2] and in assay [3] was “largely insensitive” each time.

With `O=C(O)C(O)CCO` (centres unmarked) [DHB, 2,4-dihydroxybutyric acid], the “Mode of inhibition of malic enzyme” value in assay [4] is recorded as “competitive inhibitor”.

Turning to `O=CC[C@H](O)C(=O)O` [malate semialdehyde, (L)-malate semialdehyde], the Maximum activity in assay [5] is listed as 4.3 μmol/(min* mgprot); in assay [6], 4.9 μmol/(min* mgprot); in assay [7], 4.7 μmol/(min* mgprot); in assay [8], 1.7 μmol/(min* mgprot).
